# Values of other authors in patent US20070027217A1, “Composition and Method for Preventing Secondary Burn Ischemia” (priority 2005, published 2007).
# Entries after “also recorded” stand apart in the source; their conditions may differ.
# What was measured:
# burns = conditions: in vivo
# burned hamster model = conditions: intravenous infusion
# 38% full thickness burn = conditions: burn victim taking ibuprofen for arthritis
compound,measurement,setting,value
COc1ccc2c(c1)c(CC(=O)O)c(C)n2C(=O)c1ccc(Cl)cc1 [indomethacin],vascular occlusion and loss of blood flow in burns,burns,does not prevent vascular occlusion and loss of blood flow
CC(C)Cc1ccc(C(C)C(=O)O)cc1 (centres unmarked) [ibuprofen],vasodilation response to burn injury,burned hamster model,reduction in the vasodilation response
same,hypermetabolic response during recovery,38% full thickness burn,failed to show the expected hypermetabolic response
same,start of restoration of blood flow within interspaces,rat comb burn; injected immediately after burn trauma,16 h
same,vascular occlusion / blood flow within the interspaces,rat comb burn; systemic application or injection,preserves blood flow; also recorded: restores vessel patency and blood flow
